Assay results: ChEMBL document CHEMBL1125295, “Synthesis and some pharmacological properties of potent and selective antagonists of the vasopressor (V1-receptor) response to arginine-vasopressin” (J Med Chem, 1992)
Each block holds one molecule with its values, some of them ahead of it. *1 amine or outer side, *2 acyl side, *3 side chain or, on linkers, in order; H or OH if unused. Where a SMILES comes first, the peptide text is derived from it. Bridges are numbered along the chain shown (N, C = ends). The star is where a group is joined. Ethylenediamine = C(CN[*:2])N[*:1]; X1 = O=C(CC1(S[*:2])CCCCC1)[*:1]; X2 = CC(C)(CC(=O)[*:1])S[*:2]; NHBu = CCCCN*

Assays:
[1] = biological target: Vasopressin V2 receptor (Rattus norvegicus) (UniProt Q00788); assay: Dose that reduces urine flow in water-loaded rats; assay type: functional
Vasopressin V2 receptor (Rattus norvegicus), sequence (Q00788 whole entry): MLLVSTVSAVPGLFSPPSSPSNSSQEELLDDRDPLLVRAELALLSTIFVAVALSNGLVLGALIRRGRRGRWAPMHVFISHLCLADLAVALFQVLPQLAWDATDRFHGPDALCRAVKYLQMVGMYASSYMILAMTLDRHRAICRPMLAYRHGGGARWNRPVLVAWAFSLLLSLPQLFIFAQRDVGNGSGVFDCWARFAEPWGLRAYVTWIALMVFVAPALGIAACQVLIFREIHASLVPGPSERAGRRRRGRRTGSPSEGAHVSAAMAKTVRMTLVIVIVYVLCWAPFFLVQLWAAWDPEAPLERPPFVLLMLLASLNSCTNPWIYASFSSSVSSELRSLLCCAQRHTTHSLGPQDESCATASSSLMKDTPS

[2] = biological target: Vasopressin V1 receptor (Rattus norvegicus) (UniProt P48974+P30560); assay: Dose that reduces blood pressure response in rats; assay type: functional
Vasopressin V1 receptor (Rattus norvegicus), sequence (P30560 whole entry, looked up): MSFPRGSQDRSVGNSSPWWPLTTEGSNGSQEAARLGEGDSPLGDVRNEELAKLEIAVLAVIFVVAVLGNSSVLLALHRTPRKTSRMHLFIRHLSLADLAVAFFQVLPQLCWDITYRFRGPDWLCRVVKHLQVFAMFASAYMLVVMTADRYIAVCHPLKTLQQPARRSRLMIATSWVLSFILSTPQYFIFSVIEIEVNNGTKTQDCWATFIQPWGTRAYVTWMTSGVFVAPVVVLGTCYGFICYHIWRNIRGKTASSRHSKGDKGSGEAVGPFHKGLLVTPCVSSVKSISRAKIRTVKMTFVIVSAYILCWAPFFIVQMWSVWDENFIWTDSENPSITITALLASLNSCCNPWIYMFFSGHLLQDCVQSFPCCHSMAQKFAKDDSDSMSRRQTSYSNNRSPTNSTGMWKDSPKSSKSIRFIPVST
Vasopressin V1 receptor (Rattus norvegicus), sequence (P48974 whole entry, looked up): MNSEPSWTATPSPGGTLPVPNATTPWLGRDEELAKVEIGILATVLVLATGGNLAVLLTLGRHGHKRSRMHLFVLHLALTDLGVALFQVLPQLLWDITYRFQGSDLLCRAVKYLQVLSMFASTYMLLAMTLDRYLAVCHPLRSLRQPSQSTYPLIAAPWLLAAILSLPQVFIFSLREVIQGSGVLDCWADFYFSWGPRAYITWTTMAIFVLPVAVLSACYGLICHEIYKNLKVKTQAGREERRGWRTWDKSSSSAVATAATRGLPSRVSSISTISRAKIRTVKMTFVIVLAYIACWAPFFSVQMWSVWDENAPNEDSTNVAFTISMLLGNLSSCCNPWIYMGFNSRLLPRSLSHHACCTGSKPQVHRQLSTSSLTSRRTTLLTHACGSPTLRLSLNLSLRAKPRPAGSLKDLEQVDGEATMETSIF

Vasopressin V1 receptor = Vasopressin V1 receptor (Rattus norvegicus, UniProt P48974+P30560); assay: In vivo vasopressin V1-antagonistic activity was determined by measuring the blood pressure response in rats.; assay type: functional, organism-based
Vasopressin V2 receptor = Vasopressin V2 receptor (Rattus norvegicus, UniProt Q00788); assay: In vivo antidiuretic V2-antagonistic activity was measured as changes in urine flow in water-loaded rats and is expressed as the negative logarithm of the ''effective dose divided by the estimated volume of distribution (67 mL/kg); assay type: functional, organism-based; conditions: read-out: pA2 (converted)
Vasopressin V2 receptor, sequence (Q00788 whole entry): as the sequence (Q00788 whole entry) above

[3] = Ratio of antidiuretic V2 effective dose to that of vasopressin V1 effective dose; assay type: functional, Urine

- Effective dose [1]: 115 nM/kg
SMILES: CC(C)[C@H](NC(=O)[C@H](CCCN=C(N)N)NC(=O)[C@@H]1CCCN1C(=O)[C@H]1CSSC2(CCCCC2)CC(=O)N(C)[C@@H](Cc2ccc(O)cc2)C(=O)N[C@H](Cc2ccccc2)C(=O)N[C@@H](CCC(N)=O)C(=O)N[C@H](CC(N)=O)C(=O)N1)C(N)=O
- Effective dose [2]: 0.2 nM/kg

- Effective dose [1]: 33 nM/kg
SMILES: CN1C(=O)CC2(CCCCC2)SSC[C@H](C(=O)N2CCC[C@H]2C(=O)N[C@@H](CCCN=C(N)N)C(=O)NCCN)NC(=O)[C@@H](CC(N)=O)NC(=O)[C@H](CCC(N)=O)NC(=O)[C@@H](Cc2ccccc2)NC(=O)[C@@H]1Cc1ccc(O)cc1
- Effective dose [2]: 0.12 nM/kg

- Effective dose [1]: 84 nM/kg
SMILES: CNC(=O)[C@H](CCCN=C(N)N)NC(=O)[C@@H]1CCCN1C(=O)[C@H]1CSSC2(CCCCC2)CC(=O)N(C)[C@@H](Cc2ccc(O)cc2)C(=O)N[C@H](Cc2ccccc2)C(=O)N[C@@H](CCC(N)=O)C(=O)N[C@H](CC(N)=O)C(=O)N1
- Effective dose [2]: 0.12 nM/kg

- Effective dose [1]: 45 nM/kg
SMILES: C[C@H](O)[C@H](NC(=O)[C@H](CCCN=C(N)N)NC(=O)[C@@H]1CCCN1C(=O)[C@H]1CSSC2(CCCCC2)CC(=O)N(C)[C@@H](Cc2ccc(O)cc2)C(=O)N[C@H](Cc2ccccc2)C(=O)N[C@@H](CCC(N)=O)C(=O)N[C@H](CC(N)=O)C(=O)N1)C(N)=O
- Effective dose [2]: 0.22 nM/kg

SMILES: COc1ccc(C[C@@H]2NC(=O)CC3(CCCCC3)SSC[C@@H](C(=O)N3CCC[C@H]3C(=O)N[C@@H](CCCN=C(N)N)C(=O)NCCN)NC(=O)[C@H](CC(N)=O)NC(=O)[C@H](CCC(N)=O)NC(=O)[C@H](Cc3ccccc3)NC2=O)cc1 (Y(Me)FQNCPR-Ethylenediamine; linker N-5 via X1) [listing 1 of 2 here]
- pA2 (Vasopressin V1 receptor): 8.75
- Kb (Vasopressin V2 receptor): ~501 nM

SMILES: COc1ccc(C[C@@H]2NC(=O)CC3(CCCCC3)SSC[C@@H](C(=O)N3CCC[C@H]3C(=O)N[C@@H](CCCN=C(N)N)C(=O)NCCN)NC(=O)[C@H](CC(N)=O)NC(=O)[C@H](CCC(N)=O)NC(=O)[C@H](Cc3ccccc3)NC2=O)cc1 (Y(Me)FQNCPR-Ethylenediamine; linker N-5 via X1) [listing 2 of 2 here]
- Ratio [3]: ~275

SMILES: CNC(=O)[C@H](CCCN=C(N)N)NC(=O)[C@@H]1CCCN1C(=O)[C@@H]1CSSC2(CCCCC2)CC(=O)N[C@@H](Cc2ccc(OC)cc2)C(=O)N[C@@H](Cc2ccccc2)C(=O)N[C@@H](CCC(N)=O)C(=O)N[C@@H](CC(N)=O)C(=O)N1 (Y(Me)FQNCPR-NHMe; linker N-5 via X1) [listing 1 of 2 here]
- pA2 (Vasopressin V1 receptor): 8.73
- Kb (Vasopressin V2 receptor): ~1260 nM

SMILES: CNC(=O)[C@H](CCCN=C(N)N)NC(=O)[C@@H]1CCCN1C(=O)[C@@H]1CSSC2(CCCCC2)CC(=O)N[C@@H](Cc2ccc(OC)cc2)C(=O)N[C@@H](Cc2ccccc2)C(=O)N[C@@H](CCC(N)=O)C(=O)N[C@@H](CC(N)=O)C(=O)N1 (Y(Me)FQNCPR-NHMe; linker N-5 via X1) [listing 2 of 2 here]
- Ratio [3]: ~700

SMILES: COc1ccc(C[C@@H]2NC(=O)CC3(CCCCC3)SSC[C@@H](C(=O)N3CCC[C@H]3C(=O)N[C@@H](CCCN=C(N)N)C(=O)N[C@@H](C)C(N)=O)NC(=O)[C@H](CC(N)=O)NC(=O)[C@H](CCC(N)=O)NC(=O)[C@H](Cc3ccccc3)NC2=O)cc1 (Y(Me)FQNCPRA-NH2; linker N-5 via X1) [listing 1 of 2 here]
- pA2 (Vasopressin V1 receptor): 8.75
- Kb (Vasopressin V2 receptor): ~1000 nM

SMILES: COc1ccc(C[C@@H]2NC(=O)CC3(CCCCC3)SSC[C@@H](C(=O)N3CCC[C@H]3C(=O)N[C@@H](CCCN=C(N)N)C(=O)N[C@@H](C)C(N)=O)NC(=O)[C@H](CC(N)=O)NC(=O)[C@H](CCC(N)=O)NC(=O)[C@H](Cc3ccccc3)NC2=O)cc1 (Y(Me)FQNCPRA-NH2; linker N-5 via X1) [listing 2 of 2 here]
- Ratio [3]: ~590

SMILES: COc1ccc(C[C@@H]2NC(=O)CC(C)(C)SSC[C@@H](C(=O)N3CCC[C@H]3C(=O)N[C@@H](CCCN=C(N)N)C(=O)N[C@@H](C)C(N)=O)NC(=O)[C@H](CC(N)=O)NC(=O)[C@H](CCC(N)=O)NC(=O)[C@H](Cc3ccccc3)NC2=O)cc1 (Y(Me)FQNCPRA-NH2; linker N-5 via X2)
- pA2 (Vasopressin V1 receptor): 8.16

SMILES: COc1ccc(C[C@@H]2NC(=O)CC3(CCCCC3)SSC[C@@H](C(=O)N3CCC[C@H]3C(=O)N[C@@H](CCCN=C(N)N)C(=O)NCC(=O)NCCN)NC(=O)[C@H](CC(N)=O)NC(=O)[C@H](CCC(N)=O)NC(=O)[C@H](Cc3ccccc3)NC2=O)cc1 (Y(Me)FQNCPRG-Ethylenediamine; linker N-5 via X1) [listing 1 of 2 here]
- pA2 (Vasopressin V1 receptor): 8.39
- Kb (Vasopressin V2 receptor): ~251 nM

SMILES: COc1ccc(C[C@@H]2NC(=O)CC3(CCCCC3)SSC[C@@H](C(=O)N3CCC[C@H]3C(=O)N[C@@H](CCCN=C(N)N)C(=O)NCC(=O)NCCN)NC(=O)[C@H](CC(N)=O)NC(=O)[C@H](CCC(N)=O)NC(=O)[C@H](Cc3ccccc3)NC2=O)cc1 (Y(Me)FQNCPRG-Ethylenediamine; linker N-5 via X1) [listing 2 of 2 here]
- Ratio [3]: ~60

SMILES: COc1ccc(C[C@@H]2NC(=O)CC3(CCCCC3)SSC[C@@H](C(=O)N3CCC[C@H]3C(=O)N[C@@H](CCCN=C(N)N)C(=O)NCC(N)=O)NC(=O)[C@H](CC(N)=O)NC(=O)[C@H](CCC(N)=O)NC(=O)[C@H](Cc3ccccc3)NC2=O)cc1 (Y(Me)FQNCPRG-NH2; linker N-5 via X1)
- pA2 (Vasopressin V1 receptor): 8.62

SMILES: CCCCNC(=O)CNC(=O)[C@H](CCCN=C(N)N)NC(=O)[C@@H]1CCCN1C(=O)[C@@H]1CSSC2(CCCCC2)CC(=O)N[C@@H](Cc2ccc(OC)cc2)C(=O)N[C@@H](Cc2ccccc2)C(=O)N[C@@H](CCC(N)=O)C(=O)N[C@@H](CC(N)=O)C(=O)N1 (Y(Me)FQNCPRG-NHBu; linker N-5 via X1)
- pA2 (Vasopressin V1 receptor): 8.44

- Kb (Vasopressin V2 receptor): ~219 nM
SMILES: COc1ccc(C[C@@H]2NC(=O)CC3(CCCCC3)SSC[C@@H](C(=O)N3CCC[C@H]3C(=O)N[C@@H](CCCN=C(N)N)C(=O)N[C@@H](CCCN=C(N)N)C(N)=O)NC(=O)[C@H](CC(N)=O)NC(=O)[C@H](CCC(N)=O)NC(=O)[C@H](Cc3ccccc3)NC2=O)cc1 (Y(Me)FQNCPRR-NH2; linker N-5 via X1)
- pA2 (Vasopressin V1 receptor): 8.78

SMILES: COc1ccc(C[C@@H]2NC(=O)CC(C)(C)SSC[C@@H](C(=O)N3CCC[C@H]3C(=O)N[C@@H](CCCN=C(N)N)C(=O)N[C@@H](CCCN=C(N)N)C(N)=O)NC(=O)[C@H](CC(N)=O)NC(=O)[C@H](CCC(N)=O)NC(=O)[C@H](Cc3ccccc3)NC2=O)cc1 (Y(Me)FQNCPRR-NH2; linker N-5 via X2)
- pA2 (Vasopressin V1 receptor): 8.52

- Kb (Vasopressin V2 receptor): ~631 nM
SMILES: COc1ccc(C[C@@H]2NC(=O)CC3(CCCCC3)SSC[C@@H](C(=O)N3CCC[C@H]3C(=O)N[C@@H](CCCN=C(N)N)C(=O)N[C@H](C(N)=O)[C@@H](C)O)NC(=O)[C@H](CC(N)=O)NC(=O)[C@H](CCC(N)=O)NC(=O)[C@H](Cc3ccccc3)NC2=O)cc1 (Y(Me)FQNCPRT-NH2; linker N-5 via X1) [listing 1 of 2 here]
- pA2 (Vasopressin V1 receptor): 8.49

SMILES: COc1ccc(C[C@@H]2NC(=O)CC3(CCCCC3)SSC[C@@H](C(=O)N3CCC[C@H]3C(=O)N[C@@H](CCCN=C(N)N)C(=O)N[C@H](C(N)=O)[C@@H](C)O)NC(=O)[C@H](CC(N)=O)NC(=O)[C@H](CCC(N)=O)NC(=O)[C@H](Cc3ccccc3)NC2=O)cc1 (Y(Me)FQNCPRT-NH2; linker N-5 via X1) [listing 2 of 2 here]
- Ratio [3]: ~205

SMILES: COc1ccc(C[C@@H]2NC(=O)CC(C)(C)SSC[C@@H](C(=O)N3CCC[C@H]3C(=O)N[C@@H](CCCN=C(N)N)C(=O)N[C@H](C(N)=O)[C@@H](C)O)NC(=O)[C@H](CC(N)=O)NC(=O)[C@H](CCC(N)=O)NC(=O)[C@H](Cc3ccccc3)NC2=O)cc1 (Y(Me)FQNCPRT-NH2; linker N-5 via X2)
- pA2 (Vasopressin V1 receptor): 8.04

- Kb (Vasopressin V2 receptor): ~1580 nM
SMILES: COc1ccc(C[C@@H]2NC(=O)CC3(CCCCC3)SSC[C@@H](C(=O)N3CCC[C@H]3C(=O)N[C@@H](CCCN=C(N)N)C(=O)N[C@H](C(N)=O)C(C)C)NC(=O)[C@H](CC(N)=O)NC(=O)[C@H](CCC(N)=O)NC(=O)[C@H](Cc3ccccc3)NC2=O)cc1 (Y(Me)FQNCPRV-NH2; linker N-5 via X1) [listing 1 of 2 here]
- pA2 (Vasopressin V1 receptor): 8.57

SMILES: COc1ccc(C[C@@H]2NC(=O)CC3(CCCCC3)SSC[C@@H](C(=O)N3CCC[C@H]3C(=O)N[C@@H](CCCN=C(N)N)C(=O)N[C@H](C(N)=O)C(C)C)NC(=O)[C@H](CC(N)=O)NC(=O)[C@H](CCC(N)=O)NC(=O)[C@H](Cc3ccccc3)NC2=O)cc1 (Y(Me)FQNCPRV-NH2; linker N-5 via X1) [listing 2 of 2 here]
- Ratio [3]: ~575

SMILES: COc1ccc(C[C@@H]2NC(=O)CC(C)(C)SSC[C@@H](C(=O)N3CCC[C@H]3C(=O)N[C@@H](CCCN=C(N)N)C(=O)N[C@H](C(N)=O)C(C)C)NC(=O)[C@H](CC(N)=O)NC(=O)[C@H](CCC(N)=O)NC(=O)[C@H](Cc3ccccc3)NC2=O)cc1 (Y(Me)FQNCPRV-NH2; linker N-5 via X2)
- pA2 (Vasopressin V1 receptor): 8.05

- Kb (Vasopressin V2 receptor): ~1000 nM
SMILES: COc1ccc(C[C@@H]2NC(=O)CC3(CCCCC3)SSC[C@@H](C(=O)N3CCC[C@H]3C(=O)N[C@@H](CCCN=C(N)N)C(=O)N[C@@H](Cc3ccc(O)cc3)C(N)=O)NC(=O)[C@H](CC(N)=O)NC(=O)[C@H](CCC(N)=O)NC(=O)[C@H](Cc3ccccc3)NC2=O)cc1 (Y(Me)FQNCPRY-NH2; linker N-5 via X1) [listing 1 of 2 here]
- pA2 (Vasopressin V1 receptor): 8.47

SMILES: COc1ccc(C[C@@H]2NC(=O)CC3(CCCCC3)SSC[C@@H](C(=O)N3CCC[C@H]3C(=O)N[C@@H](CCCN=C(N)N)C(=O)N[C@@H](Cc3ccc(O)cc3)C(N)=O)NC(=O)[C@H](CC(N)=O)NC(=O)[C@H](CCC(N)=O)NC(=O)[C@H](Cc3ccccc3)NC2=O)cc1 (Y(Me)FQNCPRY-NH2; linker N-5 via X1) [listing 2 of 2 here]
- Ratio [3]: ~217

SMILES: COc1ccc(C[C@@H]2NC(=O)CC(C)(C)SSC[C@@H](C(=O)N3CCC[C@H]3C(=O)N[C@@H](CCCN=C(N)N)C(=O)N[C@@H](Cc3ccc(O)cc3)C(N)=O)NC(=O)[C@H](CC(N)=O)NC(=O)[C@H](CCC(N)=O)NC(=O)[C@H](Cc3ccccc3)NC2=O)cc1 (Y(Me)FQNCPRY-NH2; linker N-5 via X2)
- pA2 (Vasopressin V1 receptor): 8.25

SMILES: COc1ccc(C[C@@H]2NC(=O)CC(C)(C)SSC[C@@H](C(=O)N3CCC[C@H]3C(=O)N[C@@H](CCCN=C(N)N)C(=O)NCC(N)=O)NC(=O)[C@H](CC(N)=O)NC(=O)[C@H](CCC(N)=O)NC(=O)[C@H](Cc3ccccc3)NC2=O)cc1 [DP[TYR(ME)2]AVP] (Y(Me)FQNCPRG-NH2; linker N-5 via X2)
- pA2 (Vasopressin V1 receptor): 7.96
